Test results published in US12583858B2 (Genentech, Inc., priority 2015, dated 2026).

The molecules below were run against T1, TDO2 (Homo sapiens, UniProt P48775) (assay: TDO2 cell assay (NFK GreenScreen, SW48 cells)). Conditions: SW48 cells (high TDO expressing), 200 uM tryptophan, 24 hours; Table 3; read-out: TDO2 Cell Fluor EC50.
T1 construct: decreased levels of NFK in SW48 cells (high TDO expressing cells)
Format: cell-based

T1 sequence (P48775 whole entry): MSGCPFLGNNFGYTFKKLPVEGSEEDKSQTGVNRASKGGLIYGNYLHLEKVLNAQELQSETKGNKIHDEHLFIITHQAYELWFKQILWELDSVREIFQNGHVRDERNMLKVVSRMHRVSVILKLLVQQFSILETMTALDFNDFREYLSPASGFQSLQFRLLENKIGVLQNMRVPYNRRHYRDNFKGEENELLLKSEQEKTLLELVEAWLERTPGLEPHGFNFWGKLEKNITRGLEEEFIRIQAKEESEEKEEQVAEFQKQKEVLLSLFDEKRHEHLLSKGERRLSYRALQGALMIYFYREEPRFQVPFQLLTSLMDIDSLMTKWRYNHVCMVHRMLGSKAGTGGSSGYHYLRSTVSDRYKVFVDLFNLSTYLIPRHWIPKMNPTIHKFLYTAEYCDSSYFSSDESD

Q: How did the EC50 turn out when N#CCN1CCC(O)C(C2c3ccccc3-c3cncn32)C1 (single isomer, unassigned) [Example 14b] was run?
A: > 25000 nM

Q: N#CCN1CCC(O)C(C2c3ccccc3-c3cncn32)C1 (single isomer, unassigned) [Example 14c] was tested. Which EC50 did it give?
A: 20000 nM

Q: With N#CCN1CCC(O)C(C2c3ccccc3-c3cncn32)C1 (single isomer, unassigned) [Example 14d] as the molecule, how does the EC50 read?
A: > 25000 nM

Q: How did the EC50 turn out when CCS(=O)(=O)N1CCC(O)C(C2c3ccccc3-c3cncn32)C1 (single isomer, unassigned) [Example 15a] was run?
A: > 25000 nM

Q: For CCS(=O)(=O)N1CCC(O)C(C2c3ccccc3-c3cncn32)C1 (single isomer, unassigned) [Example 15b], which EC50 is on record?
A: > 25000 nM

Q: CCS(=O)(=O)N1CCC(O)C(C2c3ccccc3-c3cncn32)C1 (single isomer, unassigned) [Example 15c] was tested. Which EC50 did it give?
A: 7500 nM

Q: How did the EC50 turn out when CCS(=O)(=O)N1CCC(O)C(C2c3ccccc3-c3cncn32)C1 (single isomer, unassigned) [Example 15d] was run?
A: > 25000 nM

Q: With O[C@@H]1CCC(F)(F)C[C@@H]1[C@H]1c2ccccc2-c2cncn21 (single isomer, unassigned) [Example 18b] as the molecule, how does the EC50 read?
A: 62 nM

Q: How did the EC50 turn out when OC1CCC(F)(F)CC1C1c2ccccc2-c2cncn21 (single isomer, unassigned) [Example 18c, 4,4-difluoro-2-(5H-imidazo[5,1-a]isoindol-5-yl)cyclohexan-1-ol] was run?
A: 320 nM

Q: OC1CCC(F)(F)CC1C1c2ccccc2-c2cncn21 (single isomer, unassigned) [Example 18d, 4,4-difluoro-2-(5H-imidazo[5,1-a]isoindol-5-yl)cyclohexan-1-ol] was tested. Which EC50 did it give?
A: 8000 nM

Q: O[C@H]1CCC(F)(F)C[C@H]1[C@@H]1c2ccccc2-c2cncn21 (single isomer, unassigned) [Example 18f] was tested. Which EC50 did it give?
A: 15000 nM

Q: How did the EC50 turn out when OC1CCC(F)(F)CC1C1c2ccccc2-c2cncn21 (single isomer, unassigned) [Example 18g, 4,4-difluoro-2-(5H-imidazo[5,1-a]isoindol-5-yl)cyclohexan-1-ol] was run?
A: 110 nM

Q: How did the EC50 turn out when OC1CCC(F)(F)CC1C1c2ccccc2-c2cncn21 (single isomer, unassigned) [Example 18h, 4,4-difluoro-2-(5H-imidazo[5,1-a]isoindol-5-yl)cyclohexan-1-ol] was run?
A: 13000 nM

Q: OC1c2ccccc2CC1C1c2ccccc2-c2cncn21 (single isomer, unassigned) [Example 19a] was tested. Which EC50 did it give?
A: 7400 nM

Q: With OC1c2ccccc2CC1C1c2ccccc2-c2cncn21 (single isomer, unassigned) [Example 19b] as the molecule, how does the EC50 read?
A: 510 nM

Q: With OC1c2ccccc2CC1C1c2ccccc2-c2cncn21 (single isomer, unassigned) [Example 19c] as the molecule, how does the EC50 read?
A: 180 nM

Q: OC1c2ccccc2CC1C1c2ccccc2-c2cncn21 (single isomer, unassigned) [Example 19d] was tested. Which EC50 did it give?
A: 200 nM

Q: OC1c2ccccc2CC1C1c2ccccc2-c2cncn21 (single isomer, unassigned) [Example 19e] was tested. Which EC50 did it give?
A: 2000 nM

Q: OC1c2ccccc2CC1C1c2ccccc2-c2cncn21 (single isomer, unassigned) [Example 19f] was tested. Which EC50 did it give?
A: 4400 nM

Q: OC1CCCC1C1c2ccc(F)cc2-c2cncn21 (single isomer, unassigned) [Example 20a] was tested. Which EC50 did it give?
A: > 25000 nM

Q: For OC1CCCC1C1c2ccc(F)cc2-c2cncn21 (single isomer, unassigned) [Example 20b], which EC50 is on record?
A: 430 nM

Q: Which EC50 does the source give for OC1CCCC1C1c2ccc(F)cc2-c2cncn21 (single isomer, unassigned) [Example 20c] here?
A: 3600 nM

Q: OC1CCCC1C1c2ccc(F)cc2-c2cncn21 (single isomer, unassigned) [Example 20d] was tested. Which EC50 did it give?
A: 99 nM

Q: For CC1(C)CC(O)C1C1c2ccccc2-c2cncn21 (single isomer, unassigned) [Example 22d], which EC50 is on record?
A: 6900 nM

Q: CC1(C)C[C@@H](O)[C@H]1[C@H]1c2ccccc2-c2cncn21 (single isomer, unassigned) [Example 22f] was tested. Which EC50 did it give?
A: 1100 nM

Q: Which EC50 does the source give for CC1(C)C[C@@H](O)[C@H]1[C@H]1c2ccccc2-c2cncn21 (single isomer, unassigned) [Example 22g] here?
A: 780 nM

Q: For CC1(C)CC(O)C1C1c2ccccc2-c2cncn21 (single isomer, unassigned) [Example 22h], which EC50 is on record?
A: 400 nM

Q: How did the EC50 turn out when CC1(C)CCC(C2c3ccccc3-c3cncn32)C1O (single isomer, unassigned) [Example 23a] was run?
A: > 25000 nM

Q: For CC1(C)CCC(C2c3ccccc3-c3cncn32)C1O (single isomer, unassigned) [Example 23b], which EC50 is on record?
A: 85 nM

Q: For CC1(C)CCC(C2c3ccccc3-c3cncn32)C1O (single isomer, unassigned) [Example 23c], which EC50 is on record?
A: 81 nM

Q: CC1(C)CCC(C2c3ccccc3-c3cncn32)C1O (single isomer, unassigned) [Example 23d] was tested. Which EC50 did it give?
A: 110 nM

Q: With CC1(C)CCC(C2c3ccccc3-c3cncn32)C1O (single isomer, unassigned) [Example 23e] as the molecule, how does the EC50 read?
A: 17000 nM

Q: With CC1(C)CCC(C2c3ccccc3-c3cncn32)C1O (single isomer, unassigned) [Example 23f] as the molecule, how does the EC50 read?
A: 2700 nM

Q: For CC1(C)CCCC(C2c3ccccc3-c3cncn32)C1O (single isomer, unassigned) [Example 24a], which EC50 is on record?
A: 57 nM

Q: How did the EC50 turn out when CC1(C)CCCC(C2c3ccccc3-c3cncn32)C1O (single isomer, unassigned) [Example 24b] was run?
A: 8700 nM

Q: CC1(C)CCCC(C2c3ccccc3-c3cncn32)C1O (single isomer, unassigned) [Example 24c] was tested. Which EC50 did it give?
A: 5500 nM

Q: Which EC50 does the source give for CC1(C)CCCC(C2c3ccccc3-c3cncn32)C1O (single isomer, unassigned) [Example 24d] here?
A: 1100 nM

Q: With CC1(C)CCCC(C2c3ccccc3-c3cncn32)C1O (single isomer, unassigned) [Example 24e] as the molecule, how does the EC50 read?
A: 130 nM

Q: Which EC50 does the source give for CC1(C)CCCC(C2c3ccccc3-c3cncn32)C1O (single isomer, unassigned) [Example 24g] here?
A: 340 nM

Q: Which EC50 does the source give for CC1(C)CCCC(C2c3ccccc3-c3cncn32)C1O (single isomer, unassigned) [Example 24h] here?
A: 12000 nM

Q: Which EC50 does the source give for OC1CCCCC1C1c2ccc(F)cc2-c2cncn21 (single isomer, unassigned) [Example 25a] here?
A: 510 nM

Q: Which EC50 does the source give for OC1CCCCC1C1c2ccc(F)cc2-c2cncn21 (single isomer, unassigned) [Example 25b] here?
A: > 25000 nM

Q: OC1CCCCC1C1c2ccc(F)cc2-c2cncn21 (single isomer, unassigned) [Example 25c] was tested. Which EC50 did it give?
A: 20000 nM

Q: How did the EC50 turn out when OC1CCCCC1C1c2ccc(F)cc2-c2cncn21 (single isomer, unassigned) [Example 25d] was run?
A: 48 nM

Q: OC1COCC1C1c2ccccc2-c2cncn21 (single isomer, unassigned) [Example 26a] was tested. Which EC50 did it give?
A: > 25000 nM

Q: With OC1COCC1C1c2ccccc2-c2cncn21 (single isomer, unassigned) [Example 26b] as the molecule, how does the EC50 read?
A: 230 nM

Q: Which EC50 does the source give for OC1COCC1C1c2ccccc2-c2cncn21 (single isomer, unassigned) [Example 26c] here?
A: 710 nM

Q: For OC1COCC1C1c2ccccc2-c2cncn21 (single isomer, unassigned) [Example 26d], which EC50 is on record?
A: > 25000 nM

Q: Which EC50 does the source give for N#CCN1CC[C@@H]([C@H]2c3ccccc3-c3cncn32)[C@H](O)C1 (single isomer, unassigned) [Example 27a] here?
A: > 25000 nM

Q: With N#CCN1CC[C@@H]([C@H]2c3ccccc3-c3cncn32)[C@H](O)C1 (single isomer, unassigned) [Example 27b] as the molecule, how does the EC50 read?
A: 18000 nM
